# Measured values from patent US12286439B2, “Inhibitors of ERK nuclear translocation” (Yeda Research and Development Co. Ltd., priority 2018, dated 2025).
# Key:
# Type in all cases: cell-based
# [1] = test system: A2185 and A2352 cells; assay: Viability assay (methylene blue), two BRAF melanoma cells; settings: 3 μM, 72 hours, 1% FCS
# Experimental: FIGS. 10A, 10B and 10C present data from screening the 20 analogs of Compound Z2 (“C-compounds”) showing three particularly active anti-proliferative compounds. […] A2185 and A2352 cells were grown in 1% FCS containing DMSO (0.1%), EPE peptide, Compound Z56, Compound Z2 or C-compounds (10 μM), for 72 hours. Compounds were categorized according to activity: (1) active, below 40%; (2) moderate activity, below 80%; (3) not active, above 80%. […] A2185 and A2352 cells were grown in 1% FCS containing DMSO (0.1%), EPE peptide (10 μM), compounds Z56, Z2 or selected C-compounds (3 μM), for 72 hours. Empty squares/circles represent individual data points of proliferation. Full squares/circles indicate average proliferation of 2 independent experiments in triplicate±SE. Bold horizontal line defines arbitrary activity threshold of activity below 40%. FIG. 10C presents dose response curves of active C-compounds compounds. A2185 and A2352 were grown in 1% FCS media containing DMSO (0.1%), EPE peptide, Z56, Z2 (10 μM) or compounds C17, C22 and C23 (0.1-10 μM), for 72 hours. […] Cell viability was measured by staining with methylene blue. Data presented as percentage of DMSO control. Bar graphs represent average of 2 independent experiments done in triplicates ±SE.
# FIG. 13 presents a graph showing the effect of analogs of Compound C17 (“D-compounds”) on cell viability at a concentration of 10 μM. A2185 and A2352 cells were grown in 1% FCS media containing DMSO (0.1%) EPE peptide (10 μM), Compounds Z56, Z2, C17 (10 μM) as controls, and D-Compounds (10 μM), for 72 hours. Viable cells were measured by staining with methylene blue. Bar graphs represent average of 2 independent experiments done in triplicates. Data presented as percentage of DMSO proliferation ±standard error.
# FIG. 14 presents a graph showing the effect of analogs of Compound C17 (“D-compounds”) on cell viability at a concentration of 1 μM. A2185 and A2352 cells were grown in 1% FCS media containing DMSO (0.1%), EPE peptide (10 μM), Compounds Z56, Z2 and C17 (1 and 10 μM) as controls, and D-compounds (1 μM), for 72 hours. Viable cells were measured by staining with methylene blue. Bar graphs represent average of 2 independent experiments done in triplicates. Data presented as percentage of DMSO proliferation ±standard error.
# Cells were seeded at low confluence into 24, 48 or 96-well plates in complete medium. After 24 hours, medium was replaced by 1% FCS (fetal calf serum) containing appropriate treatments. Fresh medium containing the same agents was replaced every day. After 72 or 96 hours of treatment, cells were fixed with 4% formaldehyde overnight at 23° C., washed once with 0.1 M borate buffer (pH 8.5) for 10 minutes, and stained with of 1% methylene blue in 0.1 M borate buffer (pH 8.5) for 30 minutes. Excess stain was washed out with distilled water. Color was extracted by adding 0.1 M HCl (3 hours, 23° C.), and absorbance measured at 595 nm in an ELISA reader. For time course experiments, attached cells were fixed and measured at 0, 24, 48, 72 and 96 hours. For dose-response experiments, cells were treated with indicated concentrations of reagent, fixed and stained after 72 hours as above.
# The ability of the selected compounds to reduce cell viability of two BRAF melanoma cells (A2185 and A2352) was evaluated. Initially, all compounds were assayed at a relatively high concentration of 10 μM.
# [2] = test system: ERK1/2 phosphorylated at the TEY activation loop motif; assay: Western blot, ERK1/2 activation loop (TEY) phosphorylation; settings: 10 μM, 2 hours; TPA; A2185 or HeLa cells
# Experimental: (§1) CoIP assay was conducted using αERK1 (C-terminus) antibodies conjugated to protein A/G agarose beads. The precipitates were analyzed by Western blot using the indicated antibodies. Whole cell lysates (WCL) and αIgG-mouse (IgG) are shown as controls. […] Cell extracts were analyzed by Western blot with the indicated antibodies. […] The same extracts described in (B) were subjected to Western blot analysis using αpAkt Abs. The closest molecular weight marker (kDa) is shown on the right of all relevant panels.
# (§2) Bars indicate average of 2 independent experiments done in triplicate ±SE. […] Empty squares represent individual data points of proliferation. Full squares indicate average proliferation of 2 independent experiments done in triplicate ±SE. […] Cell viability (as shown in FIGS. 8A and 8B) was measured by staining with methylene blue, and data presents proliferation normalized to DMSO control. […] Cell lysates were analyzed by Western blot with the corresponding antibodies. Closest molecular marker is indicated at the right of each panel.
# (§3) Preparation of Cellular Extracts and Western Blotting:
# (§4) Cells were grown to 70% confluence and serum starved (0.1% FCS, 16 hours). After treatments, cells were rinsed twice with ice-cold PBS−/− and scraped into RIPA buffer. […]
# [3] = test system: c-Myc phosphorylation (nuclear target of ERK1/2); assay: Western blot, phosphorylated c-Myc; settings: 10 μM, 2 hours; TPA; both A2185 and HeLa cells
# Experimental: as §1, §2, §3, §4
structure (smiles),measurement,setting,value
O=C(OC1C=CS(=O)(=O)C1)c1ccccc1 (stereo not drawn) [Compound Z2],cell viability at lower concentration,[1],variable activity
same,phosphorylation of the activation loop of ERK1/2,[2],"none of Compounds Z56, Z1, Z2 or Z3 affected"
same,levels of phosphorylated c-Myc,[3],decreased
